# Source: US20230272012A1, “PEPTIDES AND METHODS OF USE” (REALTA LIFE SCIENCES, INC., priority 2020, published 2023)
# Bridge positions count the residues as written; N and C are the ends. Square brackets hold non-standard residues; d marks the D form. Ends that are not written are not given here. Peptide text beside a SMILES is read from it. R8 = C=CCCCCCC[C@@](C)(N)C(=O)O; S5 = C=CCCC[C@](C)(N)C(=O)O; Sar = CNCC(=O)O
# Assays:
# PD-1/PD-L1 interaction = target: T1, PD-1/PD-L1 interaction (Homo sapiens, UniProt Q15116+Q9NZQ7); test: PD-1/PD-L1 Blockade Bioassay (Promega); type: cell-based; settings: increasing peptide concentrations
# T1 construct: host or cells: PD-1 effector cells; PD-L1 aAPC/CHO-K1 cells
# Method: PD-1 effector cells were incubated with PD1-L1 aAPC cells in the absence or presence of increasing concentrations of anti-PD-1 antibody (positive control) and select PIC1 peptides. Luminescence was detected in luminometer plate reader.
# To assess if PIC1 peptides could block PD-1 inhibitory activity in a cell-based assay, select peptides were screened in the PD-1/PD-L1 Blockade Bioassay (Promega). The PD-1/PD-L1 Blockade Bioassay is a biologically relevant MOA-based assay that can be used to measure the potency and stability of antibodies and other biologics designed to block the PD-1/PD-L1 interaction. This bioluminescent cell-based assay is used to measure the potency and stability of molecules targeting PD-1 and consists of two genetically engineered cell lines: aAPC/CHO-K1 Cells are CHO-K1 cells with an engineered cell surface protein designed to activate cognate TCRs in an antigen-independent manner. When the two cell types are co-cultured, the PD-1/PD-L1 interaction inhibits TCR signaling and NFAT-mediated luciferase activity. Addition of an inhibitory molecule that blocks either PD-1 or PD-L1 releases the inhibitory signal and results in TCR signaling and NFAT-mediated luciferase activity.
# [1] = tested on: antibody-initiated complement activation (human O sera and AB red blood cells); test: ABO incompatibility hemolytic assay of complement activity (CH50-type); type: cell-based; settings: peptide 0.8 mg/ml (~0.5 mM)
# Method: (§1) FIG. 1A-1B show PIC1 peptides' inhibition of complement activation in an ABO incompatibility assay. […] Inhibition of ABO incompatibility hemolysis in a CH50-type assay. Peptides are at a final concentration of 0.5 mM. Values are represented as a percent of the positive control, which consists of human O sera and AB red blood cells in GVBS^++ buffer. Data are the means of n=3 independent experiments±SEM.
# (§2) For hemolytic complement assays, human red blood cells (RBCs) from type AB donors were purified, washed, and standardized to 1.0×10^9 cells/ml, as previously described. Human sera from type O donors at a 15% final concentration was combined with 0.5 mM of the peptides and the volume was brought up to 0.2 ml with GVBS^++ and 5.0×10^7 RBCs. The samples were incubated for 1 hour at 37° C. and then spun at 3,000 rpm for 5 minutes and the supernatant was collected and read at 412 nm. Values are represented as a percent of the positive control, which consists of human O sera and AB red blood cells in GVBS^++ buffer.
# (§3) To assess the extent to which the peptide variants inhibit antibody-initiated complement activation, an ABO incompatibility ex vivo assay was utilized in which purified erythrocytes from a ‘type AB+’ donor are incubated with sera from a ‘type O’ subject containing anti-A and anti-B antibodies. Peptides were tested at a concentration of 0.8 mg/ml (˜0.5 mM). […] D-amino acid variants PA-0127 and PA-0133 decreased ABO hemolysis by 20% (P value=0.083) and 25% (P value=0.076), respectively. […]
# MPO = target: T2, MPO (Homo sapiens, UniProt P05164); test: MPO activity assay (TMB oxidation); type: biochemical; settings: half-maximal values from dose-response curves
# T2 construct: purchased Lee BioSolutions (Maryland Heights, Mo.)
# T2 sequence (P05164 49-745): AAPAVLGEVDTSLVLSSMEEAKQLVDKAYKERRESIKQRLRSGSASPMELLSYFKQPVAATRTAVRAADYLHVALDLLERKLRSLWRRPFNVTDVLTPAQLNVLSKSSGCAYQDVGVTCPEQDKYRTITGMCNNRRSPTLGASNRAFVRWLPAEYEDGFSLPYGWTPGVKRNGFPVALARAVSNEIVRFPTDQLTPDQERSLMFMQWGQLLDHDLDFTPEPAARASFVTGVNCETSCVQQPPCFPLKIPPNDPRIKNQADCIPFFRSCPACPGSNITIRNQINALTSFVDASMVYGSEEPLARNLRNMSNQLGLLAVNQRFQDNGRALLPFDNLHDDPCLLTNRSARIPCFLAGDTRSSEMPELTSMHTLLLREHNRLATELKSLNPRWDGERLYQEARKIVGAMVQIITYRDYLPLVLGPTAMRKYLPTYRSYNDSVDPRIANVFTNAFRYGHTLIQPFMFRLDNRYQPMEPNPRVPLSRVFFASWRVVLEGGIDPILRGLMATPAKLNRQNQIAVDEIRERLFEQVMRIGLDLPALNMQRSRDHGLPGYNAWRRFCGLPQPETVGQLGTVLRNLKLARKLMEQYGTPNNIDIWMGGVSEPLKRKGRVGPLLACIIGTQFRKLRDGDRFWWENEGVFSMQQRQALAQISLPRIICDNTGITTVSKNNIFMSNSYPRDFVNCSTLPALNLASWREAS
# Method: The MPO activity assay was performed as previously described. Briefly, peptides were diluted to 12 mg/ml and serially titrated in a 96 well plate at a volume of 0.02 ml. MPO was diluted to 20 μg/ml and 0.02 ml was added to the titrated peptides. TMB (3,30,5,50-tetramethylbenzidine) (0.1 ml) was added to each well for 2 minutes, followed by 0.1 ml of 2.5 N H2SO4 for another 2 minutes, and then read on a 96 well plate reader (BioTek) at 450 nm.
# The inventors also assessed the ability of RLS-0127* and RLS-0133* to inhibit MPO activity as determined by inhibition of oxidation of TMB in a plate-based assay. […] Additionally, the inventors assessed the ability of RLS-0127* and RLS-0133* to bind C1q in a plate-based assay in which C1q is coated on the plate and increasing amounts of the peptides are added, followed by primary antibody to the peptides and secondary antibody conjugated to HRP. The plate was then incubated with TMB to give a […] signal that is detected at a wavelength of 450 nm in a plate reader.
# [2] = tested on: purified human Pan T-cells; test: T-cell exhaustion protocol (Dynabeads re-stimulation); type: cell-based; settings: peptides 2 mg/ml at each stimulation; supernatant ELISA
# Method: Purified human pan-T-cells were subject to stimulation with Dynabeads every 48 hours over the period of 8 days with cells also receiving PIC1 peptides (2 mg/ml) at each stimulation. Cells not receiving Dynabeads were run in parallel to assess background levels of Caspase 3/7 signal. At the eighth day, cells were harvested and the levels of Caspase 3/7 determined by ELISA.
# Purified human pan-T-cells were subject to stimulation with Dynabeads every 48 hours over the period of 8 days with cells also receiving PIC1 peptides (2 mg/ml) at each stimulation. Cell supernatants were collected at each stimulation and levels of IL-2 and IFN-gamma assayed by ELISA.
# T-cell exhaustion is a form of T-cell dysfunction that occurs in cancer. It is defined by poor effector function, reduction in cytokine release (e.g., IL-2, TNF-alpha, IFN-gamma), sustained expression of inhibitory receptors (e.g., PD-1, LAG-3, CD244, CD160) with the progressive loss of effector function due to overstimulation. Exhaustion prevents optimal control of tumor growth. Exhausted T cells are prevalent in the tumor microenvironment (TME) and can lead to T-cell apoptosis. T-cell exhaustion is reversible, and pharmaceutical inhibition of T-cell exhaustion has been considered a promising strategy by many cancer researchers. To ascertain if PIC1 peptides could reverse T-cell exhaustion and increase T cell viability and effector function, a T-cell exhaustion protocol was developed. To induce T-cell exhaustion, purified human Pan T-cells were stimulated with T-Activator CD3/CD28 Dynabeads and cells are washed and re-stimulated every 48 hours. PIC1 peptides were added to the cells after each stimulation with Dynabeads. After three to four stimulations cells were harvested for readouts which consisted of assessing T-cell apoptosis by measuring Caspase 3/7 levels and production of cytokines IL-2 and IFN-gamma which is indicative of T-cell functionality. […] To further evaluate if PIC1 peptides could restore T-cell functionality in cells that have undergone the exhaustion protocol, the inventors next assessed production of cytokines IL-2 and IFN-gamma. Supernatants from the cells after each stimulation were collected and the cytokines measured by ELISA. […] The lower level of IFN-gamma signal compared to IL-2 was consistently seen in this assay.
# [3] = ABO incompatibility hemolytic assay of complement activity (CH50-type); type: cell-based, human; settings: human; peptide 0.8 mg/ml (~0.5 mM); read-out: decrease of ABO hemolysis compared to PA-C9Sar
# Method: as §1, §2, §3
# T1 sequence (Q15116 25-288): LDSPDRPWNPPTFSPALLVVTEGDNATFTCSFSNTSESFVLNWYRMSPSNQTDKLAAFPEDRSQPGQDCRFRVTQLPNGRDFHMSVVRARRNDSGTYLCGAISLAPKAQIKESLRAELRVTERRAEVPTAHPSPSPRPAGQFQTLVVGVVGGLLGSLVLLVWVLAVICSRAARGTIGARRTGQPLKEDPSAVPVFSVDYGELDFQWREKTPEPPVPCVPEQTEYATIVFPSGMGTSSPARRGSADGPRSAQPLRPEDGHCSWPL
# T1 sequence (Q9NZQ7 19-290): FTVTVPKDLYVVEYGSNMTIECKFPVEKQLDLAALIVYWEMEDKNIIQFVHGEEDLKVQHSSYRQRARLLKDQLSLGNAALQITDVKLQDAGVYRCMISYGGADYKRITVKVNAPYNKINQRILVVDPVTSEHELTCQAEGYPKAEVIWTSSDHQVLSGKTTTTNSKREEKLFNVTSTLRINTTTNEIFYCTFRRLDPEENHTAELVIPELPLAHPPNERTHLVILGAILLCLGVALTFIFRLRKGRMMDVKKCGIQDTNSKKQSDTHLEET
Molecule,inhibition of PD-1/PD-L1 inhibitory signaling (luminescence) (PD-1/PD-L1 interaction),MPO inhibition compared with PA-C9Sar (MPO),other results
IALILEP(Sar)CS5QdERS5A (IALILEP[Sar]C[S5]Q[dE]R[S5]A; staple 10-14) [PA-0144],did not show PD-1/PD-L1 inhibitory activity,,
IALIR8EP(Sar)CCQS5RAA (IALI[R8]EP[Sar]CCQ[S5]RAA; bridges not given here; also: R8/S5 5-12 may or may not be stapled) [PA-0136],,,inhibition of ABO incompatible hemolysis compared to PA-I8Sar [1]: same level as the parent molecule
IALIR8EPI(Sar)CQS5RAA (IALI[R8]EPI[Sar]CQ[S5]RAA; staple 5-12) [PA-0148],,decreased MPO inhibition,
"dIALILEPI(Sar)CQERAA (IALILEPIXCQERAA; D-isoleucine, sarcosine; MOD_RES (1)..(1) D-amino acid; MOD_RES (9)..(9) Sarcosine) [PA-0156]",did not show PD-1/PD-L1 inhibitory activity,,
IALILEP(Sar)CS5QERS5dA (IALILEP[Sar]C[S5]QER[S5][dA]; bridges not given here; also: S5 10-14 may or may not be stapled) [PA-0145],,,increase in complement inhibition compared to PA-I8Sar [1]: ~10%
"IALILEdPI(Sar)CQERAA (IALILEPIXCQERAA; D-proline, sarcosine; MOD_RES (7)..(7) D-amino acid; MOD_RES (9)..(9) Sarcosine) [PA-0162]",did not show PD-1/PD-L1 inhibitory activity,,IL-2 signal at stimulation 2 [2]: showed an IL-2 signal at stimulation 2; inhibition of complement in the hemolytic assay compared to PA-C9Sar [1]: slightly less well
"IALILEPdI(Sar)CQERAA (IALILEPIXCQERAA; D-isoleucine, sarcosine; MOD_RES (8)..(8) D-amino acid; MOD_RES (9)..(9) Sarcosine) [PA-0163]",,decreased MPO inhibition,
S5ALIS5EP(Sar)CCQERAA ([S5]ALI[S5]EP[Sar]CCQERAA; bridges not given here; also: S5 1-5 hydrocarbon staple: may or may not be stapled) [PA-0138],,,inhibition of ABO incompatible hemolysis compared to PA-I8Sar [1]: lesser extent
IALILEP(Sar)dCS5QERS5A (IALILEP[Sar][dC][S5]QER[S5]A; staple 10-14) [PA-0143],did not show PD-1/PD-L1 inhibitory activity,,
S5ALIS5EPI(Sar)CQERAA ([S5]ALI[S5]EPI[Sar]CQERAA; staple 1-5) [PA-0151],,decreased MPO inhibition,
IALIS5EP(Sar)S5CQERAA (IALI[S5]EP[Sar][S5]CQERAA; bridges not given here; also: S5 5-9 may or may not be stapled) [PA-0140],,,inhibition of ABO incompatible hemolysis compared to PA-I8Sar [1]: lesser extent; MPO inhibition compared with PA-I8Sar (MPO): reduced inhibition of MPO activity
"IALILEPI(Sar)CQEdRAA (IALILEPIXCQERAA; D-arginine, sarcosine; MOD_RES (9)..(9) Sarcosine; MOD_RES (13)..(13) D-amino acid) [PA-0167]",,,inhibition of complement in the hemolytic assay compared to PA-C9Sar [1]: slightly less well
CC[C@H](C)[C@H](N)C(=O)N[C@@H](C)C(=O)N[C@@H](CC(C)C)C(=O)N[C@H](C(=O)N[C@@H](CC(C)C)C(=O)N[C@@H](CCC(=O)O)C(=O)N1CCC[C@H]1C(=O)N[C@H](C(=O)N(C)CC(=O)N[C@@H](CS)C(=O)N[C@@]1(C)CCCC=CCCC[C@@](C)(C(=O)O)NC(=O)[C@H](C)NC(=O)[C@H](CCCNC(=N)N)NC(=O)[C@H](CCC(=O)O)NC1=O)[C@@H](C)CC)[C@@H](C)CC [PA-0155] (H-IALILEPI[Sar]C[S5]ERA[S5]-OH; staple 11-15),did not show PD-1/PD-L1 inhibitory activity,decreased MPO inhibition,decrease in ABO hemolysis compared to reference peptide at 1 h [3]: 64%; inhibition of complement in the hemolytic assay compared to PA-C9Sar [1]: significant increase in complement inhibitory activity
RLS-0142: PIC1 peptide screened in the bioassay; no sequence printed (IALILEP[Sar][dC][S5]QER[S5]A; staple 10-14),did not show PD-1/PD-L1 inhibitory activity,,
IAS5ILES5I(Sar)CQERAA (IA[S5]ILE[S5]I[Sar]CQERAA; staple 3-7) [PA-0153],,decreased MPO inhibition,
